Where two headings read alike, the source gives them in different places.
Tests used:
ATP-HSP70 (WT) = biological target: T1, ATP-HSP70 (WT) (Homo sapiens, UniProt P0DMV8, E110D); experiment: ITC binding to ATP-bound full-length HSP70
T1 construct: Full-length recombinant proteins of HSP70 (aa 1-641) as well as DnaK (aa 1-638); His6 (N); made in house; host or cells: E. coli BL21 Star (DE3)
Description: The human stress-inducible HSP70 (residues 1-641 or 386-616 of SEQ ID NO: 2) and E. coli DnaK (residues 1-638, 389-607, or 393-507 of SEQ ID NO: 4) were cloned into the pET25 vector (EMD Millipore Chemicals, Inc., Billerica, Mass., USA) between the NdeI and XhoI restriction sites. The full-length HSP70 and DnaK mutants were constructed by PCR-based site-directed mutagenesis using the QuikChange™ Site-Directed Mutagenesis Kit (Agilent Technologies, Inc., Santa Clara, Calif., USA). All plasmid inserts were verified by DNA sequencing. All HSP70 and DnaK variants were produced with a N-terminal His6-tag in the E. coli BL21 Star (DE3) strain (Invitrogen catalog number C6010-03). The resulting strains were grown at 37° C. in LB medium containing 50 μg/mL of carbenicillin (Sigma-Aldrich Co., St. Louis, Mo., USA). At an OD600 about 0.3 to about 0.5, protein expression was induced with 0.5 mM isopropyl-β-D-thiogalactopyranoside (IPTG), and cells were subsequently grown at 25° C. for about 16 h. Cells were collected by centrifugation and resuspended in the Bugbuster® Master Mix (EMD Millipore Chemicals catalog number 71456-4), supplemented with protease inhibitors, 1 mM diethiothreitol (DTT) and 20 mM imidazole. The His6-tagged fusion proteins were isolated on Ni^2+-chelating resins (Ni-NTA Superflow, Qiagen catalog number 30410) by standard procedures. When necessary, size-exclusion chromatography on a Superdex® 200 or a Superose® 6 10/300 GL columns (GE Healthcare) analytical column pre-equilibrated with 1× Dulbecco's Phosphate Buffered Saline (DPBS—Invitrogen 14190-136), 1 mM Tris-HCl (pH 7.4) or 10 mM Tris-HCl (pH 7) was used as the final purification step. The purified DnaK proteins were dialyzed thoroughly against 1× DPBS with 5 mM DTT at 4° C., for crystallization trials involving the small molecule inhibitor PET-16. For isothermal titration calorimetry studies, all HSP70 and DnaK variants were dialyzed extensively against the buffers as noted below under the section entitled “Isothermal Titration calorimetry Studies”. […]

Cyclophilin D (Cyp-D) = experiment: Purified mitochondria from H1299 cells, western blot for Cyp-D; type: cell-based
Description: FIGS. 5A-5F illustrates that PET-16 leads to loss of mitochondrial protein Cyclophilin D and impairs bioenergetics in tumor cells. FIGS. 5A-5D are western blots of HSP70, which is present at mitochondria of tumor H1299 cells but not in normal tissue, such as liver. The constitutively expressed 70 kDa family members, HSC70 and GRP75, are present in mitochondria of normal cells. Equal amounts of whole cell (WC)-, cytosolic (cyto)-, and mitochondrial (mito)-extracts prepared from cell lines H1299 (A, C) and MIA PaCa-2 (B) or normal (liver) cells (C, D) were examined by western blot analysis for the presence of the proteins indicated. […] Decreases of AlamarBlue® fluorescence, indicative of mitochondrial damage, are noted in PET-16-treated tumor cells (melanoma tumor cell line WM88 (-), melanoma tumor cell line WM3000 (×), melanoma tumor cell line WM852 (*), human melanoma 451 Lu cells (●), and melanoma tumor cell line WM989 (|), but not normal cells (nontransformed human fibroblasts (IMR90-♦) and primary melanocytes (▪)). Values are normalized to the vehicle-treated cells. Error bars represent standard deviation (s.d.) of four independent experiments. […]

ADP-HSP70 (WT, aa 1-641) = biological target: T2, ADP-HSP70 (WT, aa 1-641) (Homo sapiens, UniProt P0DMV8, E110D); experiment: ITC binding to ADP-bound full-length HSP70
T2 construct: Full-length recombinant proteins of HSP70 (aa 1-641) as well as DnaK (aa 1-638); His6 (N); made in house; host or cells: E. coli BL21 Star (DE3)
T2 sequence (P0DMV8 whole entry E110D, the tested form may be a part): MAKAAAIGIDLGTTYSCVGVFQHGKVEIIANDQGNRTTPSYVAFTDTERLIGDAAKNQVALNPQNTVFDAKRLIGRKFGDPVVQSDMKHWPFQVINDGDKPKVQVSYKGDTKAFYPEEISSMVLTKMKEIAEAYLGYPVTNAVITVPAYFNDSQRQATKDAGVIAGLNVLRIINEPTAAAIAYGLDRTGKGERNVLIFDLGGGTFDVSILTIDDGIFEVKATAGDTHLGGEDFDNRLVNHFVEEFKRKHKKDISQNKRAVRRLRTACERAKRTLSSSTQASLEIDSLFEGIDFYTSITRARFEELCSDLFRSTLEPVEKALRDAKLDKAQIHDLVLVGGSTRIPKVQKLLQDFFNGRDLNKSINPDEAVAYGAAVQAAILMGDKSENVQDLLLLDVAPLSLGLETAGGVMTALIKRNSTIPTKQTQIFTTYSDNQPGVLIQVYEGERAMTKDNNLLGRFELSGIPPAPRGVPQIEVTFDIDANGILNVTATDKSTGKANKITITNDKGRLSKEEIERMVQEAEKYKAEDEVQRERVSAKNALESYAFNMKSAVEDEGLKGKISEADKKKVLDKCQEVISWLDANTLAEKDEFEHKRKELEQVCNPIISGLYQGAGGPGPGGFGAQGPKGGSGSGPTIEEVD
Description: The human stress-inducible HSP70 (residues 1-641 or 386-616 of SEQ ID NO: 2) and E. coli DnaK (residues 1-638, 389-607, or 393-507 of SEQ ID NO: 4) were cloned into the pET25 vector (EMD Millipore Chemicals, Inc., Billerica, Mass., USA) between the NdeI and XhoI restriction sites. The full-length HSP70 and DnaK mutants were constructed by PCR-based site-directed mutagenesis using the QuikChange™ Site-Directed Mutagenesis Kit (Agilent Technologies, Inc., Santa Clara, Calif., USA). All plasmid inserts were verified by DNA sequencing. All HSP70 and DnaK variants were produced with a N-terminal His6-tag in the E. coli BL21 Star (DE3) strain (Invitrogen catalog number C6010-03). The resulting strains were grown at 37° C. in LB medium containing 50 μg/mL of carbenicillin (Sigma-Aldrich Co., St. Louis, Mo., USA). At an OD600 about 0.3 to about 0.5, protein expression was induced with 0.5 mM isopropyl-β-D-thiogalactopyranoside (IPTG), and cells were subsequently grown at 25° C. for about 16 h. Cells were collected by centrifugation and resuspended in the Bugbuster® Master Mix (EMD Millipore Chemicals catalog number 71456-4), supplemented with protease inhibitors, 1 mM diethiothreitol (DTT) and 20 mM imidazole. The His6-tagged fusion proteins were isolated on Ni^2+-chelating resins (Ni-NTA Superflow, Qiagen catalog number 30410) by standard procedures. When necessary, size-exclusion chromatography on a Superdex® 200 or a Superose® 6 10/300 GL columns (GE Healthcare) analytical column pre-equilibrated with 1× Dulbecco's Phosphate Buffered Saline (DPBS—Invitrogen 14190-136), 1 mM Tris-HCl (pH 7.4) or 10 mM Tris-HCl (pH 7) was used as the final purification step. The purified DnaK proteins were dialyzed thoroughly against 1× DPBS with 5 mM DTT at 4° C., for crystallization trials involving the small molecule inhibitor PET-16. For isothermal titration calorimetry studies, all HSP70 and DnaK variants were dialyzed extensively against the buffers as noted below under the section entitled “Isothermal Titration calorimetry Studies”. The dialyzed proteins were subsequently microcentrifugated at 15,000×g for 5 min at 4° C. and aliquots of the soluble proteins were stored at −80° C.
All ITC experiments were performed using a MicroCal VP-ITC isothermal titration calorimeter (MicroCal). Both full-length HSP70 and DnaK proteins and DnaK (aa 393-507) proteins were prepared in 1 mM Tris-HCl (pH 7.4) buffer containing 3% dimethylsulfoxide (DMSO). The HSP70 (aa 386-616) protein was prepared in buffer containing 3% DMSO and 10 mM Tris-HCl, pH 7. The syringe was loaded with purified protein in either 1 mM Tris-HCl (pH 7.4) buffer containing 3% DMSO or 10 mM Tris-HCl (pH 7) buffer containing 3% DMSO. The sample cell of the calorimeter was loaded with PES, PET-16 or NRLLLTG (SEQ ID NO: 7) prepared in the same buffer. All solutions were degassed for 5 min.
The titrations involving the full-length purified proteins were performed at 25° C. with injection volumes of 12 μL and a spacing of 300 s. The titrations involving the purified HSP70 (aa 386-616) and DnaK (aa 393-507) were performed at 42° C. with injection volumes of 12 μL and a spacing of 300 s. Heat from the pre-injection was not used during fitting. The data were fit using a one-site binding model available in the Origin® ITC data analysis software (MicroCal Origin® V5.0, MicroCal Software, Northampton, Mass.). Error values obtained from the MicroCal Origin® V5.0 software were averaged and reported. […]

ADP-DnaK (WT, aa 1-638) = biological target: T3, ADP-DnaK (WT, aa 1-638) (Escherichia coli, UniProt P0A6Y8); experiment: ITC binding to ADP-bound full-length DnaK; parameters: species or system E. coli
T3 construct: Full-length recombinant proteins of HSP70 (aa 1-641) as well as DnaK (aa 1-638); His6 (N); made in house; host or cells: E. coli BL21 Star (DE3)
T3 sequence (P0A6Y8 whole entry, the tested form may be a part): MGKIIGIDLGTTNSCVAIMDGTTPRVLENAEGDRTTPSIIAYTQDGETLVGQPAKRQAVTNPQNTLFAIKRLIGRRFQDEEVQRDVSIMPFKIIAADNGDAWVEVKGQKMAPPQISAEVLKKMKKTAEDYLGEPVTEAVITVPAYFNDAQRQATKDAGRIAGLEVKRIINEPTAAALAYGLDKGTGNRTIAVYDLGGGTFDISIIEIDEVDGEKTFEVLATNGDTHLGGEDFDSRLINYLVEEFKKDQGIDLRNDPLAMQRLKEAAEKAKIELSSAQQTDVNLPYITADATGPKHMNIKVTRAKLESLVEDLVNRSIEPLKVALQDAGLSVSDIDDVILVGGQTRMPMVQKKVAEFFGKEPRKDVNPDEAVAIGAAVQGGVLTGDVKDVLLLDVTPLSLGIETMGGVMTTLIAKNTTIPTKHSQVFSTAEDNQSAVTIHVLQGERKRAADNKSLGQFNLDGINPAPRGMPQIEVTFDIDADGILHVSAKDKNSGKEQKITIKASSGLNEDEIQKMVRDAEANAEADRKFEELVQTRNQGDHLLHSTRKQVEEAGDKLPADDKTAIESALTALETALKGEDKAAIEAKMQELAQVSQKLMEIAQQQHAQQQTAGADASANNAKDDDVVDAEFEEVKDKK
Description: All ITC experiments were performed using a MicroCal VP-ITC isothermal titration calorimeter (MicroCal). Both full-length HSP70 and DnaK proteins and DnaK (aa 393-507) proteins were prepared in 1 mM Tris-HCl (pH 7.4) buffer containing 3% dimethylsulfoxide (DMSO). The HSP70 (aa 386-616) protein was prepared in buffer containing 3% DMSO and 10 mM Tris-HCl, pH 7. The syringe was loaded with purified protein in either 1 mM Tris-HCl (pH 7.4) buffer containing 3% DMSO or 10 mM Tris-HCl (pH 7) buffer containing 3% DMSO. […] All solutions were degassed for 5 min.
The titrations involving the full-length purified proteins were performed at 25° C. with injection volumes of 12 μL and a spacing of 300 s. The titrations involving the purified HSP70 (aa 386-616) and DnaK (aa 393-507) were performed at 42° C. with injection volumes of 12 μL and a spacing of 300 s. Heat from the pre-injection was not used during fitting. […]

[1] = ITC, wild-type full-length ADP-bound HSP70

T1 sequence (P0DMV8 whole entry E110D, the tested form may be a part): as the sequence (P0DMV8 whole entry E110D, the tested form may be a part) above

Structure (SMILES)	Kd (ATP-HSP70 (WT); wild-type full-length ATP-bound HSP70) [µM]	abundance of Cyp-D in the soluble-protein fraction (Cyclophilin D (Cyp-D))	Kd (ADP-HSP70 (WT, aa 1-641); [1]) [µM]	Kd (ADP-HSP70 (WT, aa 1-641); dimeric ADP-bound HSP70 (N=0.5)) [µM]	Kd (ADP-HSP70 (WT, aa 1-641); tetrameric ADP-bound HSP70 (N=0.25)) [µM]	Kd (ADP-DnaK (WT, aa 1-638)) [µM]	interaction with ATP-bound HSP70 (ATP-HSP70 (WT); in words)	Kd (ADP-DnaK (WT, aa 1-638); ITC, wild-type full-length ADP-bound DnaK, read-out: Kd) [µM]
C(#C[P+](c1ccccc1)(c1ccccc1)c1ccccc1)c1ccccc1.[Br-] [PET-16, triphenyl(phenylethynyl)phosphonium bromide]	130 ± 8.3	significantly reduced	~3.8	3.8	1.3	~6		
NS(=O)(=O)C#Cc1ccccc1 [PES, 2-Phenylethynesulfonamide, reference compound]		not	~5.7				notably reduced	~6.8

— patent US10010560B2, “Small molecule HSP70 inhibitors” (THE TRUSTEES OF THE UNIVERSITY OF PENNSYLVANIA, priority 2014, dated 2018)
